The test deals with T1, Src recombinant enzyme, N-terminally His6 tagged full-length human protein (Homo sapiens, UniProt P12931).
T1 construct: Src recombinant enzyme was purchased as N-terminally His6 tagged full-length human protein; His6 (N); purchased
T1 sequence (P12931 whole entry): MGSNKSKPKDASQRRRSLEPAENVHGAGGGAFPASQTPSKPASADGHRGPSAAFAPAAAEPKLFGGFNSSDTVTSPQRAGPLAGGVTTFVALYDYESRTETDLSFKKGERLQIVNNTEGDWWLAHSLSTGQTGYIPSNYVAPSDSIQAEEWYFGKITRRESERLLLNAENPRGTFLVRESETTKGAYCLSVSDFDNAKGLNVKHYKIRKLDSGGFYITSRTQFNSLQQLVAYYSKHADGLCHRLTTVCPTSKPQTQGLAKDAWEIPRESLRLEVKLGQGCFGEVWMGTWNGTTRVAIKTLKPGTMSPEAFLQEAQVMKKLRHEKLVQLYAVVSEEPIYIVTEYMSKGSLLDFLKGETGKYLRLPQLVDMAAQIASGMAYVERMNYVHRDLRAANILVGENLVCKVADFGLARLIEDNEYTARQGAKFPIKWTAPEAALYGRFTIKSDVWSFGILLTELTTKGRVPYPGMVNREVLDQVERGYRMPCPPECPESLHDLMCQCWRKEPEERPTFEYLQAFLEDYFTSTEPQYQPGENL
As to the kind of experiment: SRC kinase inhibition assay (AlphaScreen). It counts as biochemical. Particulars: 80 μM ATP, 90 minutes at 30 degree Celsius. As for the experimental part: Protocol for SRC Kinase Inhibition Assay. Compounds of the invention were tested for in vitro activity in the following assay: A biotin labeled peptide was used as substrate (amino acid sequence: Biotin-[…]). Src recombinant enzyme was purchased as N-terminally His6 tagged full-length human protein. The 15 μL assay reactions were run in Greiner brand white 384-well low volume plates. […] Compounds were added in a volume of 100 nL from dilution series made up in DMSO, positive and negative control reactions receiving the same volume DMSO without compounds. The plates were sealed with adhesive seals and incubated for 90 minutes at 30 degree Celsius. The reactions were stopped with the detection reagents added at the same time. Product formation was quantified as photochemiluminescence between PerkinElmer AlphaScreenTM beads, using Streptavidin-coated donor and anti-phosphotyrosine (P-[…]) acceptor beads. […] Plates were incubated for 5 hours before being read on a PerkinElmer EnVisionTM plate reader in HTS AlphascreenTM mode. IC50 values were obtained by calculating percent inhibition (% I) for each reaction relative to controls on the same plate (% [SMILES] where CN/CP are the averages of the negative/positive reactions, respectively), then fitting the % I data vs. compound concentration [I] to % I=([…])))) where A is the lower asymptote, B is the upper asymptote, C is the IC50 value, and D is the slope factor.
A general note: Alpha assays give light when donor and acceptor beads are brought close together.
Consider `CNCC(C)(C)n1nc(-c2ccc(C)cc2)c2c(N)ncnc21` [4 (compound 4C)], for which the IC50 (usually the point on the concentration scale where inhibition reaches its midpoint) was in the range of 0.1 to 1 µM. Take `Cc1ccc(-c2nn(C(C)(C)CNC(=N)N)c3ncnc(N)c23)cc1` [5 (compound 5B)]: the IC50 was 0.001 to 0.1 µM.

As for `Cc1ccc(-c2nn(C(C)(C)CNC(N)=S)c3ncnc(N)c23)cc1` [6 (compound 6B)], the IC50 was in the range of 0.001 to 0.1 µM. To `Cc1ccc(-c2nn(C(C)(C)CNC(=O)c3ccc(CCN)cc3)c3ncnc(N)c23)cc1` [10 (compound 10C)] belongs 0.001 to 0.1 µM; to `Cc1ccc(-c2nn(C(C)(C)CNC(=O)c3ccc(CN)cc3)c3ncnc(N)c23)cc1` [13 (compound 13C)], 0.001 to 0.1 µM; to `Cc1ccc(-c2nn(C(C)(C)CNS(=O)(=O)c3ccccn3)c3ncnc(N)c23)cc1` [68 (compound 68B)], 0.1 to 1 µM. As for `Cc1ccc(-c2nn(C(C)(C)CNC(=O)c3cc(N4CCCCC4)ccn3)c3ncnc(N)c23)cc1` [69 (compound 69C)], the IC50 is 0.001 to 0.1 µM. To `Cc1ccc(-c2nn(C(C)(C)CNC(=O)c3cc(N4CCOCC4)ccn3)c3ncnc(N)c23)cc1` [70 (compound 70C)] belongs 0.1 to 1 µM; to `Cc1ccc(-c2nn(C(C)(C)CNC(=O)CCCCCN)c3ncnc(N)c23)cc1` [84 (compound 84C)], 0.1 to 1 µM. As for `Cc1ccc(-c2nn(C(C)(C)CNC(=O)CCCN)c3ncnc(N)c23)cc1` [85 (compound 85C)], the IC50 lay in the range of 0.1 to 1 µM. To `CC(=O)NCC(C)(C)n1nc(-c2ccc(C)cc2)c2c(N)ncnc21` [Example 2] belongs 0.1 to 1 µM. The figure for `Cc1ccc(-c2nn(C(C)(C)CN(C)C)c3ncnc(N)c23)cc1` [Example 3] is 1 to 10 µM; for `CCNC(=O)NCC(C)(C)n1nc(-c2ccc(C)cc2)c2c(N)ncnc21` [Example 7] it is 0.001 to 0.1 µM. To `Cc1ccc(-c2nn(C(C)(C)CNC(C)C)c3ncnc(N)c23)cc1` [Example 8] belongs 0.1 to 1 µM; to `Cc1ccc(-c2nn(C(C)(C)CNC(=O)Cc3ccccc3)c3ncnc(N)c23)cc1` [Example 9], 1 to 10 µM; to `Cc1ccc(-c2nn(C(C)(C)CNC(=O)c3ccccc3-n3ccnc3)c3ncnc(N)c23)cc1` [Example 14], 0.1 to 1 µM.

On to `Cc1ccc(-c2nn(C(C)(C)CNC(=O)CCCCCNC(=O)OCc3ccccc3)c3ncnc(N)c23)cc1` [Example 15], for which the IC50 lay within 0.1 to 1 µM. The figure for `CC(=O)CCC(=O)NCC(C)(C)n1nc(-c2ccc(C)cc2)c2c(N)ncnc21` [Example 16] is 1 to 10 µM; for `COCCC(=O)NCC(C)(C)n1nc(-c2ccc(C)cc2)c2c(N)ncnc21` [Example 17] it is 0.001 to 0.1 µM. The figure for `Cc1ccc(-c2nn(C(C)(C)CNC(=O)c3cccc(N4CCOCC4)c3)c3ncnc(N)c23)cc1` [Example 18] is 0.1 to 1 µM; for `Cc1ccc(-c2nn(C(C)(C)CNC(=O)CC#N)c3ncnc(N)c23)cc1` [Example 19] it is 0.001 to 0.1 µM. To `Cc1ccc(-c2nn(C(C)(C)CNC(=O)CCCc3ccccc3)c3ncnc(N)c23)cc1` [Example 20] belongs 0.1 to 1 µM; to `Cc1ccc(-c2nn(C(C)(C)CNC(=O)c3ccc(N4CCCCC4)cc3)c3ncnc(N)c23)cc1` [Example 21], 0.1 to 1 µM. `Cc1ccc(-c2nn(C(C)(C)CNC(=O)c3cccc(N4CCCCC4)c3)c3ncnc(N)c23)cc1` [Example 22]: the IC50 lay within 0.1 to 1 µM.

For `Cc1ccc(-c2nn(C(C)(C)CNC(=O)c3cc(-c4ccco4)on3)c3ncnc(N)c23)cc1` [Example 23], the IC50 was in the range of 0.001 to 0.1 µM. To `Cc1ccc(-c2nn(C(C)(C)CNC(=O)c3cc(-c4ccc(F)cc4)ncn3)c3ncnc(N)c23)cc1` [Example 24] belongs 1 to 10 µM; to `CC(=O)c1ccc(OCC(=O)NCC(C)(C)n2nc(-c3ccc(C)cc3)c3c(N)ncnc32)cc1` [Example 25], 1 to 10 µM. To `Cc1ccc(-c2nn(C(C)(C)CNC(=O)c3cnn(-c4cccc(Cl)c4)c3C(F)(F)F)c3ncnc(N)c23)cc1` [Example 26] belongs 0.001 to 0.1 µM; to `Cc1ccc(-c2nn(C(C)(C)CNC(=O)c3cc(C)nn3Cc3ccc(F)cc3)c3ncnc(N)c23)cc1` [Example 27], 0.1 to 1 µM. To `Cc1ccc(-c2nn(C(C)(C)CNC(=O)c3cnn(-c4ccc(F)cc4)c3C(F)(F)F)c3ncnc(N)c23)cc1` [Example 28] belongs 0.001 to 0.1 µM. Consider `Cc1ccc(-c2nn(C(C)(C)CNC(=O)c3cnn(-c4ccc(Br)cc4)c3C(F)(F)F)c3ncnc(N)c23)cc1` [Example 29], for which the IC50 was in the range of 0.1 to 1 µM. The figure for `CC(=O)CCCCC(=O)NCC(C)(C)n1nc(-c2ccc(C)cc2)c2c(N)ncnc21` [Example 30] is 0.1 to 1 µM; for `CC(=O)CCCC(=O)NCC(C)(C)n1nc(-c2ccc(C)cc2)c2c(N)ncnc21` [Example 31] it is 0.1 to 1 µM. Take `CCOc1ccc(C(=O)NCC(C)(C)n2nc(-c3ccc(C)cc3)c3c(N)ncnc32)cc1Cl` [Example 32]: the IC50 is 0.1 to 1 µM.

For the compound `Cc1ccc(-c2nn(C(C)(C)CNC(=O)c3cccn3C)c3ncnc(N)c23)cc1` [Example 33], the 50% inhibitory concentration (IC50) was 0.1 to 1 µM. For the compound `Cc1ccc(-c2nn(C(C)(C)CNC(=O)c3cccc(C#N)c3)c3ncnc(N)c23)cc1` [Example 34], the IC50 lay in the range of 0.1 to 1 µM. Take `Cc1ccc(-c2nn(C(C)(C)CNC(=O)CCCOCc3ccccc3)c3ncnc(N)c23)cc1` [Example 35]: the concentration for half-maximal inhibition (IC50) is 0.1 to 1 µM. As for `Cc1ccc(-c2nn(C(C)(C)CNC(=O)CCCc3ccc4c(c3)OCCO4)c3ncnc(N)c23)cc1` [Example 36], the IC50 was 0.1 to 1 µM.

As for `Cc1ccc(-c2nn(C(C)(C)CNC(=O)CCN3CCOCC3)c3ncnc(N)c23)cc1` [Example 37], the half-maximal inhibitory concentration (IC50) is 0.1 to 1 µM. To `CCN(CC)c1ccc(C(=O)NCC(C)(C)n2nc(-c3ccc(C)cc3)c3c(N)ncnc32)cc1` [Example 38] belongs 0.1 to 1 µM.

For the compound `Cc1ccc(-c2nn(C(C)(C)CNC(=O)CCOc3ccccc3)c3ncnc(N)c23)cc1` [Example 39], the IC50 lay within 0.1 to 1 µM. The figure for `Cc1ccc(-c2nn(C(C)(C)CNC(=O)c3cccc(Br)n3)c3ncnc(N)c23)cc1` [Example 40] is 0.1 to 1 µM. The figure for `Cc1ccc(-c2nn(C(C)(C)CNC(=O)c3cccc(F)n3)c3ncnc(N)c23)cc1` [Example 41] is 0.1 to 1 µM; for `Cc1ccc(-c2nn(C(C)(C)CNC(=O)c3ccnc(Cl)c3)c3ncnc(N)c23)cc1` [Example 43] it is 0.1 to 1 µM. For `Cc1ccc(-c2nn(C(C)(C)CNC(=O)c3ccnc(Cl)n3)c3ncnc(N)c23)cc1` [Example 44], the half-maximal inhibitory concentration (IC50) lay within 0.1 to 1 µM. The figure for `Cc1ccc(-c2nn(C(C)(C)CNC(=O)c3ccc(Br)cn3)c3ncnc(N)c23)cc1` [Example 45] is 1 to 10 µM.

For the compound `Cc1ccc(-c2nn(C(C)(C)CNC(=O)c3ccnnc3)c3ncnc(N)c23)cc1` [Example 46], the IC50 fell in the range of 0.1 to 1 µM.

On to `Cc1ccc(-c2nn(C(C)(C)CNC(=O)c3ccc(Cl)nc3Cl)c3ncnc(N)c23)cc1` [Example 47], for which the IC50 was in the range of 0.1 to 1 µM. The figure for `Cc1ccc(-c2nn(C(C)(C)CNC(=O)c3nc(Cl)ccc3Cl)c3ncnc(N)c23)cc1` [Example 48] is 0.1 to 1 µM; for `Cc1ccc(-c2nn(C(C)(C)CNC(=O)c3nc(Cl)ccc3Br)c3ncnc(N)c23)cc1` [Example 49] it is 1 to 10 µM. Regarding `Cc1ccc(-c2nn(C(C)(C)CNC(=O)c3cnc4ccccc4n3)c3ncnc(N)c23)cc1` [Example 51], the IC50 lay within 0.1 to 1 µM.

For the origin of these results see patent publication US8962830B2, “Protein kinase inhibitors and methods of treatment” (The Walter and Eliza Hall Institute of Medical Research, priority 2010, dated 2015).
